From US20150246946A1, “PEPTIDES AND METHODS FOR TREATING CANCER” (AGENCY FOR SCIENCE, TECHNOLOGY AND RESEARCH, priority 2012, published 2015)
Each block holds one molecule with its values, some of them ahead of it. Bridges are numbered along the chain shown (N, C = ends). [ ]: non-standard residue; d: D form. R8 = C=CCCCCCC[C@@](C)(N)C(=O)O; S5 = C=CCCC[C@](C)(N)C(=O)O; FAM = carboxyfluorescein

Legend:
Mdm2 (1-125) [1] = molecular target: T1, Mdm2 (1-125) (Homo sapiens, UniProt Q00987); assay: competitive fluorescence polarization/anisotropy, apparent Kd against Mdm2; assay type: binding
T1 construct: Mdm2 (1-125) and Mdm4 (1-125) were ligated into the GST fusion expression vector pGEX-6P-1; GST (N, cleaved yes); made in house; host or cells: E. coli BL21 DE3
T1 sequence (Q00987 1-125): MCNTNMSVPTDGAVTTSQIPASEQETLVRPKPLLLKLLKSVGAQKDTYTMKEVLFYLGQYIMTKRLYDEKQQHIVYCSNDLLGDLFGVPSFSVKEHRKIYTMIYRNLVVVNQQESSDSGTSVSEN
Protocol: (§1) The cells expressing the GST fusion constructs were grown in LB medium at 37° C. to an OD600 of ˜0.6 and induction was started with 1 mM IPTG and carried out overnight at room temperature. Cells were harvested by centrifugation and the cell pellets were re-suspended in 50 mM Tris pH 8.0, 10% sucrose and were then sonicated. The sonicated sample was centrifuged for 60 mins at 17,000 g at 4° C. […] The column was then further washed by 6 volumes of wash buffer. Mdm2 and Mdm4 were then purified from the column by cleavage with Precission (GE Lifesciences) protease. 10 units of precission protease, in one column volume of PBS with 1 mM DTT buffer, were injected onto the column. The cleavage reaction was allowed to proceed overnight at 4° C. The cleaved protein was then eluted of the column with wash buffer. Protein fractions were analyzed with SDS page gel and concentrated using a Centricon (3.5 kDa MWCO) concentrator, Millipore. Mdm2 and Mdm4 protein samples were then dialyzed into a buffer solution containing 20 mM Bis-Tris, pH 6.5, 0.05M NaCl with 1 mM DTT and loaded onto a monoS column pre-equilibrated in buffer A (20 mM Bis-Tris, pH 6.5, 1 mM DTT). The column was then washed in 6 column volumes of buffer A and bound protein was eluted with a linear gradient of 1M NaCL over 25 column volumes. Protein fractions were analyzed with SDS page gel and concentrated using a Centricon (3.5 kDa MWCO) concentrator from Millipore.
(§2) Apparent Kd values were determined for a variety of molecules via competitive fluorescence anisotropy experiments. […] The competing molecules were then titrated against complex of the FAM labelled peptide and protein. Apparent Kd values were determined by fitting the experimental data to the equations shown below:
(§3) [L]st and [L]t denote labelled ligand and total unlabelled ligand input concentrations, respectively. Kd2 is the dissociation constant of the interaction between the unlabelled ligand and the protein. In all competitive types of experiments, it is assumed that [P]t>[L]st, otherwise considerable amounts of free labelled ligand would always be present and would interfere with measurements. […] The FAM-labelled peptide were dissolved in DMSO at 1 mM and diluted into experimental buffer. Readings were carried out with a Envision Multilabel Reader (PerkinElmer). […] All titrations were carried out in triplicate. Curve-fitting was carried out using Prism 4.0 (GraphPad).

Mdm4 (1-125) [2] = molecular target: T2, Mdm4 (1-125) (Homo sapiens, UniProt O15151); assay: competitive fluorescence polarization/anisotropy, apparent Kd against Mdm4; assay type: binding
T2 construct: Mdm4 (1-125) were ligated into the GST fusion expression vector pGEX-6P-1; GST (N, cleaved yes); made in house; host or cells: E. coli BL21 DE3
T2 sequence (O15151 1-125): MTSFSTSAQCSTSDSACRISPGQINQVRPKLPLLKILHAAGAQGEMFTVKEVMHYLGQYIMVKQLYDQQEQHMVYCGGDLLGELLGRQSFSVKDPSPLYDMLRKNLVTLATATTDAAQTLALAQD
Protocol: as §1, §2, §3

[3] = system: p53 responsive LacZ reporter gene in T22 cell line; assay: T22 p53 β-galactosidase based reporter assay; assay type: cell-based, murine; details: for p53 transcriptional activity in T22 p53 reporter assay: 18 hours, DMEM with 10% FBS
Protocol: T22 cells, which were stably transfected with a p53 responsive […] reporter, were seeded into 96-well plate at a cell density of 8000 cells per well. […] Measurements were carried out using a Safire II multiplate reader (TECAN). Experiments were carried out independently twice.

[4] = molecular target: T3, interaction of p53 with Mdm2 in living BHK cells (Homo sapiens, UniProt Q00987); assay: F2H co-localization assay p53:Mdm2; assay type: cell-based; details: 0 to 50 μM
T3 construct: the prey is a fusion of either Mdm2 (7-134) or Mdm4 (1-129) with RFP; host or cells: transgenic BHK cells with lac operator repeats
T3 sequence (Q00987 7-134): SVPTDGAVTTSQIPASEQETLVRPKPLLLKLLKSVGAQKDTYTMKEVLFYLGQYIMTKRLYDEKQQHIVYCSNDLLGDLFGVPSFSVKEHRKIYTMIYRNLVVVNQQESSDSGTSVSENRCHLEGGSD

[5] = molecular target: T4, interaction of p53 with Mdm4 in living BHK cells (Homo sapiens, UniProt O15151); assay: F2H co-localization assay p53:Mdm4; assay type: cell-based; details: 0 to 50 μM
T4 construct: Mdm4 (1-129) with RFP; host or cells: transgenic BHK cells with lac operator repeats
T4 sequence (O15151 1-129): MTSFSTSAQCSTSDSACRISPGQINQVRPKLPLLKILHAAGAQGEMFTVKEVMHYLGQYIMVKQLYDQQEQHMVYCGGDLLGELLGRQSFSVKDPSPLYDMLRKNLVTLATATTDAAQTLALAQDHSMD

HCT-116 p53+/+ cells [6] = assay: HCT-116 Western blot analysis; assay type: cell-based; details: 6 hours, with or without fetal calf serum, FIG. 2d
Protocol: Cells were treated with various compounds/vehicle controls at the time points and concentrations indicated also in acoy's media with 10% FBS. Cells were rinsed with PBS and then harvested in 200 μl of 1× NuPAGE LDS sample buffer supplied by Invitrogen (NP0008). Samples were then sonicated, heated to 90° C. for 5 mins, sonicated twice for 10 s and centrifuged at 13, 000 rpm for 5 minutes. Protein concentrations were measured by BCA assay (Pierce). Western blots were then performed using antibodies against actin (AC-15, Sigma) as a loading control, p21 (118 mouse monoclonal), Mdm2 (4B2 mouse monoclonal) and p53 (DO-1 mouse monoclonal).

HCT-116 p53+/+ cells [7] = assay: cell viability (CellTiter-Glo), HCT-116 p53+/+; assay type: cell-based; details: 24 hours
Description: (§4) Data was normalized to vehicle-treated controls.

HCT-116 p53−/− cells [8] = assay: cell viability (CellTiter-Glo), HCT-116 p53−/−; assay type: cell-based; details: 24 hours
Description: as §4

HCT-116 p53+/+ cells [9] = assay: Caspase-Glo 3/7 assay, HCT-116 p53+/+; assay type: cell-based; details: 24 hours
Description: as §4

HCT-116 p53−/− cells [10] = assay: Caspase-Glo 3/7 assay, HCT-116 p53−/−; assay type: cell-based; details: 24 hours
Description: as §4

HCT116 p53+/+ cells = assay: cell cycle analysis (propidium iodide flow cytometry); assay type: cell-based; details: 24 hours; for cell cycle distribution at high concentrations: high concentration (FIG. 5); for cell cycle distribution at low concentrations: low concentration (FIG. 4c)
Protocol: Three hundred fifty thousand cells were then seeded per well in 6-well plates containing incubated overnight. […] A 1% DMSO vehicle control treatment was also carried out. Cells were washed with PBS and then detached from the plate surface by trypsinisation. […] Cells were spun down and resuspended with PI-staining solution containing RNase A. Cells were analyzed using an LSR II (Becton Dickinson).

[11] = system: thymocytes from p53 wild-type mice; assay: cell viability in mouse thymocytes, p53 wild-type; assay type: cell-based; details: p53 wild-type vs p53 deficient mice, 24 hours, annexin V/PI
Protocol: Thymocytes were isolated from wild-type and p53^+/−mice (age 4-9 weeks) and kept in a PBS/FCS (2%) solution (ref). Cells were plated at a density of 1×10^6 per well in 24-well plates in medium [DMEM/Hepes (25 mM, pH 7.2), 5% FCS, penicillin/streptomycin, glutamine] and incubated at 37° C. with 2% C02. […] Cell were then analysed for viability using this procedure, cells were washed with cold PBS, and stained with FITC-labeled annexin V antibody (PharMingen) and PI (Sigma). The relative amounts of apoptotic cells were determined by binding of annexin V and subsequent fluorescence-activated cell sorter analysis. All values were normalized to the number of cells remaining viable in vehicle (1% DMSO) treated cultures derived from the same animal stained simultaneously. Data are representatives of n=4 independent experiments.

p53 null thymocytes = assay: cell viability in mouse thymocytes, p53 null; assay type: cell-based, mice; details: high doses, 24 hours, annexin V/PI
SJSA-1 cell line = assay: caspase 3/7 activity in SJSA-1 cell line; details: SJSA-1 cells, titration
Mdm2 (1-125) [12] = molecular target: T5, Mdm2 (1-125) (human, UniProt Q00987 1-125); assay: competitive fluorescence polarization
T5 construct: range 1-125; also called Hdm2
T5 sequence (Q00987 1-125 limits assumed): as the sequence (Q00987 1-125) above

Mdm4 (1-125) [13] = molecular target: T6, Mdm4 (1-125) (human, UniProt O15151 1-125); assay: competitive fluorescence polarization
T6 construct: range 1-125; also called MDMX; Hdm4
T6 sequence (looked up): T2 sequence (O15151 1-125)

Mdm2 (1-125) [14] = molecular target: T5, Mdm2 (1-125); assay: apparent Kd, competitive fluorescence polarization; displacement of FAM-…-NH2 from Mdm2 (1-125)
Mdm4 (1-125) [15] = molecular target: T6, Mdm4 (1-125); assay: apparent Kd, competitive fluorescence polarization; displacement of FAM-…-NH2 from Mdm4 (1-125)
Mdm4 (1-125) [16] = molecular target: T6, Mdm4 (1-125); assay: direct fluorescence anisotropy titration of Mdm4 (1-125) against 50 nM labelled peptide, 1:1 model

Molecule: CC(=O)N[C@H](C(=O)N[C@@H](CO)C(=O)N[C@@H](Cc1ccccc1)C(=O)N[C@]1(C)CCCCCCC=CCCC[C@@](C)(C(N)=O)NC(=O)[C@H](CC(C)C)NC(=O)[C@H](CC(C)C)NC(=O)[C@H](C)NC(=O)[C@H](Cc2c[nH]c3ccccc23)NC(=O)[C@H](Cc2ccc(O)cc2)NC(=O)[C@H](CCC(=O)O)NC1=O)[C@@H](C)O [sMTide-02, Ac-^1TSFXEYWALLX^11-NH2]
increase in Kd against Mdm2 in comparison to unstapled counterpart (Mdm2 (1-125) [1]; stapled vs unstapled peptide): negligible increase
Kd (Mdm4 (1-125) [2]): 45.7 ± 7.65 nM
increase in Kd against Mdm4 in comparison to unstapled counterpart (Mdm4 (1-125) [2]; stapled vs unstapled peptide): 2 fold
p53 transcriptional activity in T22 p53 reporter assay [3]: strongest p53 transcriptional response ever seen in this assay
effect of PGP inhibitor PSC-883 on p53 response in the reporter assay ([3]; with 20 μM PSC-883 vs without): significantly improved the sensitivity of the p53 response
disruption of p53 interaction with Mdm2 (F2H) [4]: dissociate Mdm2 from p53
disruption of p53 interaction with Mdm4 (F2H) [5]: greater potency against Mdm4
effect of serum on activity (HCT-116 p53+/+ cells [6]): significantly improved potency in the absence of serum
cell viability (HCT-116 p53+/+ cells [7]): no significant decrease in the viability
cell viability (HCT-116 p53−/− cells [8]): no significant decrease in the viability
caspase 3/7 activity (HCT-116 p53+/+ cells [9]): negligible caspase 3/7 activity
caspase 3/7 activity (HCT-116 p53−/− cells [10]): negligible caspase 3/7 activity
cell cycle distribution at high concentrations (HCT116 p53+/+ cells): G2 arrest
cell cycle distribution at low concentrations (HCT116 p53+/+ cells): G2 arrest
cell death in thymocytes [11]: induced cell death in a p53-dependent manner
apoptosis in p53 null thymocytes (p53 null thymocytes): did not
induction of caspase 3/7 activity (SJSA-1 cell line): induced caspase 3/7 activity at substantially higher concentrations than nutlin

B1: sMTide-01 (peptide)
peptide: Ac-TSF[R8]EYWNLL[S5]-NH2
modifications: staple 4-11
SMILES: CC(=O)N[C@H](C(=O)N[C@@H](CO)C(=O)N[C@@H](Cc1ccccc1)C(=O)N[C@]1(C)CCCCCCC=CCCC[C@@](C)(C(N)=O)NC(=O)[C@H](CC(C)C)NC(=O)[C@H](CC(C)C)NC(=O)[C@H](CC(N)=O)NC(=O)[C@H](Cc2c[nH]c3ccccc23)NC(=O)[C@H](Cc2ccc(O)cc2)NC(=O)[C@H](CCC(=O)O)NC1=O)[C@@H](C)O
notes: Stapled derivative of MTide-01; also called Ac-TSFXEYWNLLX-NH2
fold increase in Kd against its unstapled counterpart (MTide-01) (Mdm2 (1-125) [12]): ~2 fold
fold increase in Kd against its unstapled counterpart (MTide-01) (Mdm4 (1-125) [13]): ~4 fold
Kd (Mdm2 (1-125) [14]): 87 nM
Kd (Mdm4 (1-125) [15]): 118 nM

The next lines start with results.

preference between Mdm2 and Mdm4 in binding (Mdm2 (1-125) [1]; comparison of apparent Kds): preference for Mdm2 over Mdm4
Mdm4 Kd (Mdm4 (1-125) [2]; apparent Kd, competitive fluorescence polarization, Mdm4 75 nM, FAM peptide 50 nM): significantly attenuated
disruption of p53 interaction with Mdm2 (F2H) [4]: dissociate Mdm2 from p53
Molecule: CC(=O)N[C@H](C(=O)N[C@@H](CO)C(=O)N[C@@H](Cc1ccccc1)C(=O)N[C@]1(C)CCCCCCC=CCCC[C@@](C)(C(N)=O)NC(=O)[C@H](CC(C)C)NC(=O)[C@H](CC(C)C)NC(=O)[C@H](C)NC(=O)[C@H](Cc2c[nH]c3cc(Cl)ccc23)NC(=O)[C@H](Cc2ccc(O)cc2)NC(=O)[C@H](CCC(=O)O)NC1=O)[C@@H](C)O [sMTide-02A, Ac-^1TSFXEY(L-6-Cl)WALLX^11-NH2]
p53 transcriptional activity in T22 p53 reporter assay [3]: much higher fold induction of p53 transcriptional activity than the unmodified sMTide-02
effect of serum on activity (HCT-116 p53+/+ cells [6]): significantly improved potency in the absence of serum
cell viability (HCT-116 p53+/+ cells [7]): no significant decrease in the viability
cell viability (HCT-116 p53−/− cells [8]): no significant decrease in the viability
caspase 3/7 activity (HCT-116 p53+/+ cells [9]): negligible caspase 3/7 activity
caspase 3/7 activity (HCT-116 p53−/− cells [10]): negligible caspase 3/7 activity
cell cycle distribution at high concentrations (HCT116 p53+/+ cells): G2 arrest
cell cycle distribution at low concentrations (HCT116 p53+/+ cells): G2 arrest
cell death in thymocytes [11]: induced cell death in a p53-dependent manner
apoptosis in p53 null thymocytes (p53 null thymocytes): to a certain extent
induction of caspase 3/7 activity (SJSA-1 cell line): induced caspase 3/7 activity at substantially higher concentrations than nutlin

Kd (Mdm4 (1-125) [16]): 4.2 nM
B2: carboxyfluorescein (FAM) labelled 12-1 peptide (FAM-RFMDYWEGL-NH2) (peptide)
peptide: {FAM}-RFMDYWEGL-NH2
notes: Labelled probe of the fluorescence anisotropy assays; also called FAM labeled probe
